Literature values in article PMC12281572.
Several values for one entry are separate records, joined by “and”; a condition that tells them apart may be missing. Identical values can stand only once.

Test: FTIR, 4-fluorophenol as donor (the pK_BHX database, per the paper)
Details: CCl4; 25 C

Structure (SMILES)	pK_BHX (log10 Kf of the 1:1 H-bond complex with 4-fluorophenol, by FTIR)
Cc1ccc(C#N)cc1	0.88 log units
c1ccc2ncccc2c1	1.89 log units
Oc1ccc(F)cc1	-0.12 log units
C1CCSC1	0.32 log units
CNc1ccc(C)cc1	0.43 log units
C1CCSCC1	0.23 log units
c1ccc2c(c1)cnc1ccccc12	1.87 log units
CCOC(=O)C(=O)OCC	0.65 log units
O=CN(c1ccccc1)c1ccccc1	1.41 log units
O=[N+]([O-])C=CN1CCCCC1	1.55 log units
COc1ccncc1	2.13 log units
CC1COC(=O)O1 (centres unmarked)	1.22 log units
CC(=O)c1ccc(C)cc1	1.24 log units
CC(=O)c1ccc([N+](=O)[O-])cc1	0.57 log units and 0.15 log units
O=S(Cc1ccccc1)Cc1ccccc1	2.43 log units
CSC	0.12 log units
N#Cc1cccc(Br)c1	0.65 log units
CCC(C)=O	1.22 log units
CCc1ccc(C(C)=O)cc1	1.25 log units
C1COCCOCCOCCOCCO1	1.12 log units
c1ccc(-c2ccccn2)nc1	1.15 log units
Brc1ccccn1	1.03 log units
Cn1cccc1	0.23 log units
CNC(C)=O	2.3 log units

Structure (SMILES)	pK_BHX (log10 Kf of the 1:1 H-bond complex with 4-fluorophenol, by FTIR)
Fc1cccc(C2CCCN2)c1 (centres unmarked)	1.65 log units
Fc1ccccn1	0.95 log units
CCN(CC)c1ccncc1	2.89 log units
CN(C)C=Nc1ccccc1Br	1.37 log units
CCOC(=O)N(CC)CC	1.95 log units
N	1.74 log units
CCNC(C)=O	2.29 log units
CCOC(=O)OCC	0.88 log units
FC1C2CC3CC(C2)CC1C3 (centres unmarked)	-0.02 log units
CS(C)=O	2.54 log units
CCc1ccncc1	2.07 log units
CCN(C)Cc1cccc(C(F)(F)F)c1	1.03 log units
CCC(=O)N(C1CCCCC1)C1CCCCC1	2.22 log units
CCCN	2.2 log units
Cc1cccc(C)c1[N+](=O)[O-]	0.29 log units
Clc1ccc(N=CNc2ccc(Cl)cc2)cc1	1.63 log units
C1=CCNCC1	2.16 log units
N#Cc1ccccc1C(F)(F)F	0.57 log units
CC(C)Cl	-0.3 log units
CNCCC#N	1.37 log units
COC(=O)c1ccc(OC)cc1	1.08 log units
Cc1ccc(NC(=Nc2ccccc2)c2ccccc2)cc1	1.47 log units
CC(=O)C12CC3CC(CC(C3)C1)C2	1.3 log units
